Data taken from ChEMBL document CHEMBL1201862, “PubChem BioAssay data set” (2004).
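Protocol summary: plate cells (96-well), add compound at 5 concentrations, incubate 48 h, interpolate endpoints linearly. The concentration for 50% growth inhibition is given as GI50.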 Active and inactive are the calls of the source. Rule as the data show it: active = GI50 up to about 1.1 µM and inactive = higher.

What was measured:
Experiment in all cases: growth of human tumour cells (NCI), 48 h
[1] = test system: HCT-116
[2] = test system: EKVX
[3] = test system: SF-295
[4] = test system: SF-539
[5] = test system: CCRF-CEM
[6] = test system: NCI-H226
[7] = test system: NCI-H23
[8] = test system: CAKI-1
[9] = test system: RPMI-8226
[10] = test system: SK-MEL-2
[11] = test system: Malme-3M
[12] = test system: SN12C
[13] = test system: OVCAR-3
[14] = test system: HT-29
[15] = test system: 786-0
[16] = test system: ACHN
[17] = test system: UACC-62
[18] = test system: SW-620
[19] = test system: MDA-MB-231
[20] = test system: UO-31
[21] = test system: OVCAR-5
[22] = test system: MCF7
[23] = test system: MDA-MB-435
[24] = test system: SK-OV-3
[25] = test system: SK-MEL-28
[26] = test system: U-251
[27] = test system: A498
[28] = test system: Hs-578T
[29] = test system: OVCAR-4
[30] = test system: KM12
[31] = test system: DU-145
[32] = test system: K562
[33] = test system: OVCAR-8
[34] = test system: SNB-75
[35] = test system: SNB-19
[36] = test system: A549
[37] = test system: NCI-H522
[38] = test system: NCI/ADR-RES
[39] = test system: SK-MEL-5
[40] = test system: HL-60
[41] = test system: NCI-H460
[42] = test system: RXF 393
[43] = test system: UACC-257
[44] = test system: COLO 205
[45] = test system: HOP-62
[46] = test system: LOX IMVI
[47] = test system: HCT-15
[48] = test system: T47D
[49] = test system: M14
[50] = test system: TK-10
[51] = test system: PC-3
[52] = test system: MOLT-4
[53] = test system: SF-268
[54] = test system: MDA-N
[55] = test system: IGROV-1
[56] = test system: BT-549
[57] = test system: HOP-92

O=C(O)c1cncc(C(=O)O)c1
GI50 [1]: > 100 µM (inactive)
GI50 [2]: > 100 µM (inactive)
GI50 [3]: > 100 µM (inactive)
GI50 [4]: > 100 µM (inactive)
GI50 [5]: > 100 µM (inactive)
GI50 [6]: > 100 µM (inactive)
GI50 [7]: > 100 µM (inactive)
GI50 [8]: > 100 µM (inactive)
GI50 [9]: > 100 µM (inactive)
GI50 [10]: > 100 µM (inactive)
GI50 [11]: > 100 µM (inactive)
GI50 [12]: > 100 µM (inactive)
GI50 [13]: > 100 µM (inactive)
GI50 [14]: > 100 µM (inactive)
GI50 [15]: > 100 µM (inactive)
GI50 [16]: > 100 µM (inactive)
GI50 [17]: > 100 µM (inactive)
GI50 [18]: > 100 µM (inactive)
GI50 [19]: > 100 µM (inactive)
GI50 [20]: > 100 µM (inactive)
GI50 [21]: > 100 µM (inactive)
GI50 [22]: > 100 µM (inactive)
GI50 [23]: > 100 µM (inactive)
GI50 [24]: > 100 µM (inactive)
GI50 [25]: > 100 µM (inactive)
GI50 [26]: > 100 µM (inactive)
GI50 [27]: > 100 µM (inactive)
GI50 [28]: > 100 µM (inactive)
GI50 [29]: > 100 µM (inactive)
GI50 [30]: > 100 µM (inactive)
GI50 [31]: > 100 µM (inactive)
GI50 [32]: > 100 µM (inactive)
GI50 [33]: > 100 µM (inactive)
GI50 [34]: > 100 µM (inactive)
GI50 [35]: > 100 µM (inactive)
GI50 [36]: > 100 µM (inactive)
GI50 [37]: > 100 µM (inactive)
GI50 [38]: > 100 µM (inactive)
GI50 [39]: > 100 µM (inactive)
GI50 [40]: > 100 µM (inactive)
GI50 [41]: > 100 µM (inactive)
GI50 [42]: > 100 µM (inactive)
GI50 [43]: > 100 µM (inactive)
GI50 [44]: > 100 µM (inactive)
GI50 [45]: > 100 µM (inactive)
GI50 [46]: > 100 µM (inactive)
GI50 [47]: > 100 µM
GI50 [48]: > 100 µM (inactive)
GI50 [49]: > 100 µM (inactive)
GI50 [50]: > 100 µM (inactive)
GI50 [51]: > 100 µM (inactive)
GI50 [52]: > 100 µM (inactive)
GI50 [53]: > 100 µM (inactive)
GI50 [54]: > 100 µM (inactive)
GI50 [55]: > 100 µM (inactive)
GI50 [56]: > 100 µM (inactive)

C#CC(O)(c1nc2ccccc2s1)c1nc2ccccc2s1
GI50 [1]: 16.3 µM (inactive)
GI50 [2]: 19.3 µM (inactive)
GI50 [3]: 24 µM (inactive)
GI50 [4]: 17.4 µM (inactive)
GI50 [5]: 27.4 µM (inactive)
GI50 [7]: 20.3 µM (inactive)
GI50 [8]: 23.5 µM (inactive)
GI50 [9]: 21 µM (inactive)
GI50 [10]: 16.7 µM (inactive)
GI50 [11]: 27 µM (inactive)
GI50 [12]: 17.8 µM (inactive)
GI50 [13]: 18.1 µM (inactive)
GI50 [14]: 27.2 µM (inactive)
GI50 [15]: 18.5 µM (inactive)
GI50 [16]: 23 µM (inactive)
GI50 [17]: 12.3 µM (inactive)
GI50 [18]: 33.7 µM (inactive)
GI50 [19]: 15.7 µM (inactive)
GI50 [20]: 15 µM (inactive)
GI50 [21]: 23.6 µM (inactive)
GI50 [22]: 22.2 µM (inactive)
GI50 [23]: 23.1 µM (inactive)
GI50 [25]: 40.7 µM (inactive)
GI50 [26]: 18.7 µM (inactive)
GI50 [27]: 16.9 µM (inactive)
GI50 [28]: 36.4 µM (inactive)
GI50 [29]: 25.8 µM (inactive)
GI50 [30]: 29.4 µM (inactive)
GI50 [57]: 16.1 µM (inactive)
GI50 [31]: 26.4 µM (inactive)
GI50 [32]: 45.7 µM (inactive)
GI50 [33]: 22 µM (inactive)
GI50 [35]: 36.9 µM (inactive)
GI50 [36]: 29 µM (inactive)
GI50 [37]: 17.6 µM (inactive)
GI50 [38]: 26.2 µM (inactive)
GI50 [39]: 15.6 µM (inactive)
GI50 [40]: 21 µM (inactive)
GI50 [42]: 18.6 µM (inactive)
GI50 [43]: 25.1 µM (inactive)
GI50 [44]: 17.7 µM (inactive)
GI50 [45]: 26.2 µM (inactive)
GI50 [46]: 17.8 µM (inactive)
GI50 [47]: 20.2 µM
GI50 [48]: 13.8 µM (inactive)
GI50 [49]: 15.5 µM (inactive)
GI50 [50]: 36.6 µM (inactive)
GI50 [51]: 19 µM (inactive)
GI50 [52]: 28.8 µM (inactive)
GI50 [53]: 28.5 µM (inactive)
GI50 [54]: 21.2 µM (inactive)
GI50 [55]: 15.2 µM (inactive)
GI50 [56]: 16.6 µM (inactive)

C1=C(c2ccccc2)SC=C(c2ccccc2)S1
GI50 [1]: 44.5 µM (inactive)
GI50 [2]: 24.1 µM (inactive)
GI50 [3]: 29.2 µM (inactive)
GI50 [4]: 31.7 µM (inactive)
GI50 [5]: 57.1 µM (inactive)
GI50 [6]: 29 µM (inactive)
GI50 [7]: 72.8 µM (inactive)
GI50 [8]: 60.4 µM (inactive)
GI50 [9]: 33.3 µM (inactive)
GI50 [11]: 45.5 µM (inactive)
GI50 [12]: 29.9 µM (inactive)
GI50 [13]: 33.7 µM (inactive)
GI50 [14]: 24.9 µM (inactive)
GI50 [15]: > 100 µM (inactive)
GI50 [16]: 60.5 µM (inactive)
GI50 [17]: 35.9 µM (inactive)
GI50 [18]: 25.9 µM (inactive)
GI50 [19]: 32.2 µM (inactive)
GI50 [20]: 60.5 µM (inactive)
GI50 [21]: 44.4 µM (inactive)
GI50 [22]: 16.9 µM (inactive)
GI50 [23]: 5.48 µM (inactive)
GI50 [24]: 27.5 µM (inactive)
GI50 [25]: 49 µM (inactive)
GI50 [26]: 38.4 µM (inactive)
GI50 [27]: 17.9 µM (inactive)
GI50 [28]: 44 µM (inactive)
GI50 [29]: 32.4 µM (inactive)
GI50 [30]: 16.9 µM (inactive)
GI50 [57]: 17.1 µM (inactive)
GI50 [31]: > 100 µM (inactive)
GI50 [32]: 21 µM (inactive)
GI50 [33]: 44.8 µM (inactive)
GI50 [34]: 1.68 µM (inactive)
GI50 [35]: > 100 µM (inactive)
GI50 [36]: 32.1 µM (inactive)
GI50 [38]: 19.9 µM (inactive)
GI50 [39]: 19.6 µM (inactive)
GI50 [40]: 65.9 µM (inactive)
GI50 [41]: 29.5 µM (inactive)
GI50 [42]: 1.05 µM (active)
GI50 [43]: 57.7 µM (inactive)
GI50 [44]: 30.1 µM (inactive)
GI50 [45]: > 100 µM (inactive)
GI50 [46]: 36.9 µM (inactive)
GI50 [47]: 26.2 µM
GI50 [48]: 53.3 µM (inactive)
GI50 [49]: 39.8 µM (inactive)
GI50 [50]: 28.8 µM (inactive)
GI50 [51]: > 100 µM (inactive)
GI50 [52]: 25.3 µM (inactive)
GI50 [53]: 28.3 µM (inactive)
GI50 [54]: 6.17 µM (inactive)
GI50 [55]: 19.9 µM (inactive)
GI50 [56]: 17.9 µM (inactive)
